Experimental data: BigSolDB 2.1

O=C1NC(=O)C2C3C=CC(C3)C12 (stereo not drawn)
solubility (mole fraction)
Conditions	278.15 K	283.15 K	288.15 K	293.15 K	298.15 K	303.15 K	308.15 K	313.15 K	318.15 K	323.15 K
in 1,4-dioxane	–	–	0.0363	0.0402	0.0495	0.0576	0.0649	0.0738	0.0843	0.0962
in 2-ethoxyethanol	0.019	0.0224	0.0255	0.0295	0.0336	0.0384	0.0442	0.0481	0.0551	0.0627
in DMF	0.0637	0.0717	0.081	0.0915	0.107	0.116	0.129	0.145	0.159	0.177
in acetone	0.0128	0.0146	0.0171	0.0196	0.0225	0.0255	0.029	0.0328	0.0369	0.0414
in ethanol	0.00441	0.00512	0.00642	0.00789	0.00949	0.0115	0.0138	0.0165	0.0195	0.0233
in ethyl acetate	0.00821	0.00971	0.0112	0.0128	0.0146	0.0171	0.0195	0.0223	0.0255	0.029
in isopropyl acetate	0.0046	0.00565	0.00672	0.00781	0.00903	0.0105	0.0124	0.0143	0.0164	0.019
in methanol	0.00626	0.00766	0.00855	0.0104	0.0127	0.0157	0.0182	0.0219	0.026	0.0308
in methyl acetate	0.0113	0.0135	0.0159	0.0187	0.0223	0.0259	0.0303	0.0352	0.041	0.0474
in n-butyl acetate	0.00431	0.00523	0.00617	0.00718	0.00869	0.0103	0.0117	0.0135	0.0156	0.0178
in n-propyl acetate	0.00537	0.00631	0.00782	0.00907	0.0106	0.0124	0.0145	0.0168	0.0193	0.0221
